The values that follow come from patent publication US20040076659A1, “Additive for livestock feeds” (priority 1994, published 2004).

Series [1] can be described thus: Accelerated oxidation, Rancimat test of Polysorbate 80 coating on silica. It counts as physicochemical. On the procedure:
Solid silica particles (LuctaCarrier™ silica, Lucta, S. A., Barcelona, Spain) are coated 50% wt/wt (based of the combined weight of the particles and coating) with a mixture of polyethylene 20 sorbitan monooleate (Polysorbate 80) and an amount of the antioxidants set forth in the tables, below, or no antioxidant as a control. The solid antioxidants (e.g., BHA or BHT) are dissolved in a suitable solvent (e.g., ethyl alcohol) and then mixed with the Polysorbate 80 at the listed concentration levels. The oxidative stability of the coating is then determined using the Rancimat test. Oxidative stability relates to how easily components of oil oxidize which creates off-flavors in the oil, and is measured by instrumental analysis using accelerated oxidation methods. American Oil Chemists' Society Official Method Cd 12-57 for Fat Stability: Active Oxygen Method (re'vd 1989); Rancimat (Laubli, M. W. and Bruttel, P. A., JOACS 63:792-795 (1986)); Joyner, N. T. and J. E. McIntyre, Oil and Soap (1938) 15:184 (modification of the Schaal oven test). The Rancimat method has been developed as the automated version of the AOM method (active oxygen method) for the determination of the induction time of fats and oils. In this method the highly volatile organic acids produced by autoxidation are absorbed in water and used to indicate the induction time. As used in the following tables, the abbreviations have the following meanings: […]

Series [2] in a line: Shelf life test, sensory panel rancidity score at 40° C. It is filed as physicochemical. The conditions noted are these: 1000 ppm. Here is the method: The nonionic surfactant polyoxyethylene 20 sorbitan monooleate (Polysorbate 80) is coated in an amount of 50% wt/wt onto silica particles (i.e., in the proportion 50 g. of Polysorbate 80 per 50 g. of silica), either without (control) or with added antioxidant. A shelf life test is performed by measuring, using a sensory panel, the level of rancid odor of samples stored at 40° C., with a rancidity score being assigned to each sample (with a score of 0 for no rancid odors and 10 for highest level of rancid odors. The results are shown in Table 13, below.

For series [3] the following is noted: Griffin et al., 1972; cited from earlier work.
Series [4] concerns rumen microbial proteinases. In words: Protease activity of mixed rumen microbial cell enzyme source (casein substrate). It counts as biochemical, cows. Here is the method:
Two rumen-fistulated, nonlactating cows averaging 623±12.5 kg in weight were fed 5 kg dry matter (DM) of low quality timothy hay twice daily. About 2.5L of rumen fluid was collected through the fistula 4 hrs after the morning feeding at 07:00 hrs. Bulk feed particles were removed by sieving the fluid through a 0.5 mm strain. The fluid was then composited and then stored in a prewarmed (37° C.) thermal container.
A microbial powder was prepared using the acetone-butanol extraction procedure outlined by Mahadevan et al., “Preparation of protease from mixed rumen microorganisms and its use for the in vitro determination of true protein in feedstuffs,” Can. J. Anim. Sci. 67:55 (1987). About 500 g of this powder was prepared and stored at −20° C. Extraction of the proteases was accomplished by stirring 250 g of the powder with 1L of 4° C. cold water (for 1 hr) and then proceeding along Mahadevan's extraction procedure. Only extracts from the filtration with an XM-300 Amicon Filter, (approx. 300 000 molecular weight cutoff—under nitrogen gas), were made, washed twice with distilled water and the retentate freeze dried. This was referred to as the mixed microbial cell enzyme source. It was used in the protein adhesion tests and also in the parallel thiol and protease activity determinations.
Ten grams of the mixed microbial cell enzyme was dissolved in 100 ml warm (37° C.) 0.1 M phosphate buffer, pH 6.8, and used as an enzyme inoculant. The assay matrix consisted of 1 ml enzyme source, 1 ml 2% casein solution, 1 ml 01 M phosphate buffer and 1 ml of either the relevant level of surfactant or an equivalent amount of buffer. Ten levels of the two surfactants, polyoxyethylene sorbitan monoleate (Tween 80) and polyoxyethylene sorbitan monastearate (Tween 60) were tested, viz 0, 0.08, 0.16, 0.24, 0.32, 0.4, 0.8, 1.2, 1.6, and, 2.0% surfactant in the assay mixture.
The protease activity incubations were performed in 50 ml plastic centrifuge tubes, at 37° C. and under a stream of carbon dioxide gas. After 1.5 hr, 1 ml of the assay mixture was removed for the determination of thiols (SH) and disulfides (SS) (Sasago et al., “Determination of sulfhydryl and disulfide groups in milk by p-chloromercuribenzoate-diathizone method,” J. Dairy Sci. 46:1348-1351 (1963)). At the end of 2 hr incubation, the reaction was stopped with 1 ml of 15% TCA (trichloroacetic acid) solution, cooled to 4° C. under an icebath, and centrifuged at 10,000 for 10 min. The free amino acids in the supernatant were assayed using the ninhydrin method (Rosen, “a Modified Colorimetric Analysis For Amino Acids,” Arch. Biochim. Biophys. 67:10 (1957)). The optimal surfactant inclusion level was calculated by direct linear plots on the assumption that the Michaellis-Menten equation applied.

The subject of another series is rumen cellulase activity. In words: In vitro cellulose degradation by rumen bacterial inoculum. It counts as biochemical, cows. The conditions noted are these: 0.25% surfactant in reaction mixture; regression on initial 24 hr. Here is the method:
A bacterial fraction, largely free of protozoa, was prepared for the fermentation assays by using the procedure of Forsberg, “Some Effects of Arsenic on the Rumen Microflora; An In Vitro Study,” Can. J. Microbiol. 24:36 (1978). The digesta inoculum was resuspended and washed twice in an equivalent amount of 0.1 M phosphate buffer pH 6.8 to the rumen fluid. The inoculum provided both, the substrate and the enzyme used for cellulose degradation assay. Incubation periods were 0, 1.5, 3, 6, 12, 24, and 48 hr. Other incubation conditions were similar to those outlined in experiment 1 above. However, cellulose was determined by the method of Updergraff, supra, for the in vivo digestibility trial. The optimal level of Tween 80 obtained was adopted here and followed.

[5] abbreviates: direct linear plots, Michaelis-Menten assumed.

Regarding `Cc1cc(C(C)(C)C)c(O)c(C(C)(C)C)c1` [BHT, butylated hydroxytoluene], the “Rancimat Stability” value in series [1] (Table 7, 200 ppm in Polysorbate 80 coating on silica) was 1.75 h; in series [1] (Table 8, 200 ppm), 1.85 h; in series [1] (Table 9, 200 ppm) it was 4.45 h; in series [1] (Table 10, 200 ppm) it was 6.15 h.
In the case of `CCOc1ccc2c(c1)C(C)=CC(C)(C)N2` [EQ, ethoxyquin], the “Rancidity Score” value came out at 1.0 in series [2] (1 week, score 0 (no rancid odors) to 10); 2.0 in series [2] (2 weeks); 3.5 in series [2] (6 weeks); 5.0 in series [2] (10 weeks).
Take “polyoxyethylene sorbitan monastearate [Tween 60]”: in series [3], the “HLB (hydrophile-lipophile balance)” value is recorded as 14.9. Further, in series [4] (control=0), the “Initial rate of proteinase activation” value is 98.04%. Moreover, in series [4] (setting [5]), the “Km (additive conc.), proteinase activation” value is recorded as 0.28 ± 0.02a % and the “Vmax (maximum proteinase activation)” value stood at 99.2 ± 2.7a %/unit additive conc. In addition, in the series on rumen cellulase activity, the “Initial rate of cellulose degradation” value is 0.87b (0.28) μg/ml/hr.
